# Source: article PMC6289163 (Tuberculosis (Edinburgh, Scotland), 2018)
# Key:
# [1] = system: intracellular M. tuberculosis H37Rv in primary human macrophages; format: cell-based, Mycobacterium tuberculosis; conditions: positive control, 0.1 μg/ml, 0.7 μM; 6 days; not shown
# BCG expressing luxAB = format: cell-based, Mycobacterium bovis bacillus Calmette-Guerin (BCG) Montreal; conditions: 6.3-100 μM
compound,measurement,setting,value
NNC(=O)c1ccncc1 [Isoniazid],intracellular killing,[1],same intracellular killing as 50 μM of NZX
WKWLKKWIK-OHxTFA [WKWLKKWIKG-OHxTFA],mycobacterial inhibitory capacity,BCG expressing luxAB,bacterial killing capacity was overall lower than that of WKWLKKWIKG-NH2xHOAc
